According to patent publication US20250127843A1, “ADRENOCORTICOTROPIC HORMONE PEPTIDE COMPOSITIONS AND METHODS OF USE” (FERRING B.V., priority 2021, published 2025):
No end group written: not given here.

Legend:
[1] = Stability of the peptide in aqueous test formulations: change in impurity content by UPLC after storage; format: physicochemical; settings: for Δ Total impurities (difference in % (w/w) of impurities from Day 0 to Day 14) / Δ impurity at retention time 1.293 min (difference in % (w/w) of impurities from Day 0 to Day 14) / Δ impurity at retention time 4.923 min (difference in % (w/w) of impurities from Day 0 to Day 14) / Δ impurity at retention time 5.821 min (difference in % (w/w) of impurities from Day 0 to Day 14) / Δ impurity at retention time 6.267 min (difference in % (w/w) of impurities from Day 0 to Day 14) / Δ impurity at retention time 7.268 min (difference in % (w/w) of impurities from Day 0 to Day 14) / Δ impurity at retention time 10.47 min (difference in % (w/w) of impurities from Day 0 to Day 14): UPLC
Procedure: The effect of methionine on the stability of the peptide in an aqueous composition was evaluated. Test formulations of the peptide (1 mg/ml) in aqueous acetate buffer at pH 5.5 were prepared with or without methionine (1 mg/ml).
The effect of pH on the stability of the peptide in an aqueous composition was evaluated. Test formulations of the peptide in water (1 mg/ml) were prepared at a pH of 4.5, 5.0 or 5.5 using an acetate buffer. […]

[2] = tested on: nuclear membranes of nerve cells of the basal forebrain, hippocampus and cerebellum; settings: cited from earlier work
[3] = tested on: membranes of the basal ganglia and cerebral cortex; settings: cited from earlier work
[4] = tested on: damaged cells under conditions of oxidative stress; settings: oxidative stress caused by short-term incubation with hydrogen peroxide; cited from earlier work
[5] = tested on: cerebellar granule neurons; settings: during glutamate neurotoxicity; cited from earlier work
Bcl-2 = settings: cited from earlier work
BDNF and NGF genes = settings: cited from earlier work
PCNA = settings: cited from earlier work
[6] = peptide 1 mg/ml in water, acetate buffer pH 4.5, 14 days at 60° C.
[7] = peptide 1 mg/ml in water, acetate buffer pH 5.0, 14 days at 60° C.
[8] = peptide 1 mg/ml, aqueous acetate buffer pH 5.5, 14 days at 60° C.

## MEHFPGP [Peptide, Met-Glu-His-Phe-Pro-Gly-Pro]
[1]; pH 4.5, 5.0 or 5.5 acetate buffer, 14 days at 60° C.
  stability of the peptide as a function of pH: most stable at pH 4.5
[1]; [6]
  Δ Total impurities (difference in % (w/w) of impurities from Day 0 to Day 14): 2.55 % (w/w)
  Δ impurity at retention time 1.293 min (difference in % (w/w) of impurities from Day 0 to Day 14): 0.3 % (w/w)
  Δ impurity at retention time 4.923 min (difference in % (w/w) of impurities from Day 0 to Day 14): 1.43 % (w/w)
  Δ impurity at retention time 5.821 min (difference in % (w/w) of impurities from Day 0 to Day 14): 0.28 % (w/w)
  Δ impurity at retention time 6.267 min (difference in % (w/w) of impurities from Day 0 to Day 14): 0 % (w/w)
  Δ impurity at retention time 7.268 min (difference in % (w/w) of impurities from Day 0 to Day 14): 0.28 % (w/w)
  Δ impurity at retention time 10.47 min (difference in % (w/w) of impurities from Day 0 to Day 14): 0.1 % (w/w)
[1]; [7]
  Δ Total impurities (difference in % (w/w) of impurities from Day 0 to Day 14): 4.07 % (w/w)
  Δ impurity at retention time 1.293 min (difference in % (w/w) of impurities from Day 0 to Day 14): 0.55 % (w/w)
  Δ impurity at retention time 4.923 min (difference in % (w/w) of impurities from Day 0 to Day 14): 2.58 % (w/w)
  Δ impurity at retention time 5.821 min (difference in % (w/w) of impurities from Day 0 to Day 14): 0.12 % (w/w)
  Δ impurity at retention time 6.267 min (difference in % (w/w) of impurities from Day 0 to Day 14): 0.11 % (w/w)
  Δ impurity at retention time 7.268 min (difference in % (w/w) of impurities from Day 0 to Day 14): 0.28 % (w/w)
  Δ impurity at retention time 10.47 min (difference in % (w/w) of impurities from Day 0 to Day 14): 0.24 % (w/w)
[1]; [8]
  Δ Total impurities (difference in % (w/w) of impurities from Day 0 to Day 14): 8.49 % (w/w)
  Δ impurity at retention time 1.293 min (difference in % (w/w) of impurities from Day 0 to Day 14): 1.19 % (w/w)
  Δ impurity at retention time 4.923 min (difference in % (w/w) of impurities from Day 0 to Day 14): 5.58 % (w/w)
  Δ impurity at retention time 5.821 min (difference in % (w/w) of impurities from Day 0 to Day 14): 0.1 % (w/w)
  Δ impurity at retention time 6.267 min (difference in % (w/w) of impurities from Day 0 to Day 14): 0.27 % (w/w)
  Δ impurity at retention time 7.268 min (difference in % (w/w) of impurities from Day 0 to Day 14): 0.31 % (w/w)
  Δ impurity at retention time 10.47 min (difference in % (w/w) of impurities from Day 0 to Day 14): 0.84 % (w/w)
[2]
  binding to nuclear membranes of nerve cells: bind to the nuclear membranes of nerve cells of the basal forebrain, hippocampus and cerebellum
[3]
  specific binding to membranes: specifically bind to the membranes of the basal ganglia and cerebral cortex
[4]
  number of damaged cells: reduce the number of damaged cells
[5]
  survival of cerebellar granule neurons: significantly increase the survival
Bcl-2
  levels of Bcl-2: increase levels of Bcl-2
BDNF and NGF genes
  transcription of the neurotrophin BDNF and NGF genes: rapid induction of the transcription
PCNA
  expression of the nuclear protein PCNA: significant increase in the expression
